Each compound was assayed on ZIKV (assay: ZIKV reporter virus-based antiviral screening on Huh7 cells). Details: Huh7 cells infected with recombinant luciferase reporter ZIKV (MOI about 0.1), 48 hrs, luciferase signal; read-out: EC50.
Type: cell-based, Zika virus
Source text: Protocol for ZIKV reporter virus-based antiviral screening on Huh7 cells:
• Human hepatocyte-derived carcinoma cell line (Huh7) 2. Reagents • ViviRen™ Live Cell Substrate (Promega, Cat #E6492) or Nano Glo assay system (Promega: N1130) • White opaque 96-well TC-treated microplates (Corning, Cat #3916) • 96-well Clear V-Bottom TC-treated Microplate (Corning, Cat #3894) • Complete cell culture media: DMEM (Gibco, Cat #10569) supplemented with 10% FBS (HyClone, Cat #SH30071.03IH25-40)+1% MEM Non-Essential Amino Acids Solution 100×(Gibco, Cat #11140050)+1% Penicillin-Streptomycin (10,000 U/mL) (Gibco, Cat #15140122). • Assay media: DMEM media (Gibco, Cat #31053028) supplemented with 2% FBS, 2% GlutaMAX™ Supplement (Gibco Cat #35050061), 1% Sodium Pyruvate solution (Gibco, Cat #11360070), 1% MEM Non-Essential Amino Acids Solution 100× and 1% Penicillin-Streptomycin (10,000 U/mL). • Trypsin-EDTA solution (Gibco, Cat #25200056) 3. Virus • Recombinant ZIKV strain with Renilla luciferase gene (strain FSS-Rlu) or Nano luciferase gene (Strain PRV-Nano, Dakar-Nano) 4. Instruments • BioTek Cytation 5 or other plate-readers for chemiluminescence detection model. • Eppendorf plate centrifuge • Plate shaker • Eppendorf multichannel pipettes Procedures Day 1: Preparation of Cells • Human hepatocyte-derived carcinoma cell line (Huh7) cells were detached from a T-175 flask by using a Trypsin-EDTA solution. The detached cells were suspended in complete culture media in a sterile 50-ml conical tube. • The 50-ml conical tube was centrifuged at 1200×rpm for 3 min at room temperature. • The cells were resuspended in assay media. The cell numbers were counted, and the cells diluted to a density of 3×10^5 cells/ml. • The cells were plated at 50 μl cells per well in White opaque 96-well plates (assay plates). Gently shake the plates to ensure cells to attach to the plate evenly. • The plated cells were incubated in a humidified incubator (37° C. with 5% CO2). Day 2: Infection • 1) Nine serial (2-fold or 3-fold) concentrated compounds were prepared using 90% DMSO solution and DMSO controls in a clear V-bottom 96-well plate (compound plate). • For example:
• 2) The reporter virus stock was diluted to a concentration of 3×10^4 FFU (FFU: focus-forming unit)/ml using the assay media. 200 μl diluted virus per well was aliquoted into a clear V-bottom 96-well plate (mixing plate). • 3) 1 μl above 400×concentrated compound dilutions was added from the compound plate to each well of the mixing plate. The plates were shaken on a plate shaker for 5 min. • 4) 50 μl compound-virus mixture was added into each well of the assay plates (the MOI is about 0.1). The plates were shaken gently by mixing the virus evenly. • An example of the format for assay plate:
• control. • 5) The plates were centrifuged at 1000 rpm for 15 s. • 6) The plates were incubated at 37° C. with 5% CO2 in a humidified incubator for 48 hrs. Day 4: Read Luciferase Signals • 7) The ViviRen™ Live Cell Substrate was diluted in assay media for 3000× folds. 25 μl of diluted substrates was added into each well of the assay plates. • For Nano-Glo assay system, 50 μl diluted substrates (50×fold diluted from the stock in assay buffer) were added. • 8) The plates were incubated at room temperature for 5 min. • 9) Optimally, cell viability is measured using the Promega Cell-titer Glo kit (only used when ZIKV-Rlu was used for infection). • 10) Luciferase signals were read using the Cytation 5 with gain value of 120-150. Data Analysis • a. The luciferase signals from DMSO-treated groups (un-treated controls) were set as 100%. The relative luciferase signals were obtained by normalizing the luciferase signals from each dilution-treated group to that of the controls. • b.

| SMILES | EC50 [nM] |
| --- | --- |
| COC(=O)N[C@H](C(=O)N1C[C@@H](F)C[C@H]1c1nc(Cl)c(-c2cc3c4c(c2)OCc2cc(-c5[nH]c([C@@H]6C[C@H](F)CN6C(=O)[C@@H](NC(=O)OC)C(C)(C)C(F)(F)F)nc5Cl)cc(c2-4)OC3)[nH]1)C(C)(C)C(F)(F)F [Compound 52, dimethyl ((2S,2′S)-((3S,3′S,5S,5′S)-((5,10-dihydrochromeno[5,4,3-cde]chromene-2,7-diyl)bis(4-chloro-1H-imidazole-5,2-diyl))bis(3-fluoropyrrolidine-5,1-diyl))bis(4,4,4-trifluoro-3,3-dimethyl-1-oxobutane-l,2-diyl))dicarbamate] | 103 |

Same assay, conditions: Zika virus, Huh-7, 48 h, Huh7 cells infected with recombinant luciferase reporter ZIKV (MOI about 0.1), luciferase signal

| SMILES | EC50 [nM] |
| --- | --- |
| CC[C@H](C)[C@H](NC(=O)OC)C(=O)N1C[C@@H](F)C[C@H]1c1nc(Cl)c(-c2cc3c4c(c2)OCc2cc(-c5[nH]c([C@@H]6C[C@H](F)CN6C(=O)[C@@H](NC(=O)OC)[C@@H](C)CC)nc5Cl)cc(c2-4)OC3)[nH]1 [Compound 51, dimethyl ((2S,2′S,3S,3′S)-((3S,3′S,5S,5′S)-((5,10-dihydrochromeno[5,4,3-cde]chromene-2,7-diyl)bis(4-chloro-1H-imidazole-5,2-diyl))bis(3-fluoropyrrolidine-5,1-diyl))bis(3-methyl-1-oxopentane-1,2-diyl))dicarbamate] | 98.8 |
| COC(=O)N[C@H](C(=O)N1CCC[C@H]1c1nc(Cl)c(-c2cc3c4c(c2)OCc2cc(-c5[nH]c([C@@H]6CCCN6C(=O)[C@@H](NC(=O)OC)c6ccccc6)nc5Cl)cc(c2-4)OC3)[nH]1)c1ccccc1 [Compound 23, dimethyl ((1S,1′S)-((2S,2′S)-((5,10-dihydrochromeno[5,4,3-cde]chromene-2,7-diyl)bis(4-chloro-1H-imidazole-5,2-diyl))bis(pyrrolidine-2,1-diyl))bis(2-oxo-1-phenylethane-2,1-diyl))dicarbamate] | 52.4 |
| COC(=O)N[C@H](C(=O)N1[C@@H](C)CC[C@H]1c1nc(Cl)c(-c2cc3c4c(c2)OCc2cc(-c5[nH]c([C@@H]6CC[C@H](C)N6C(=O)[C@@H](NC(=O)OC)C6C[C@@H](C)O[C@H](C)C6)nc5Cl)cc(c2-4)OC3)[nH]1)C1C[C@@H](C)O[C@H](C)C1 (stereo partly drawn) [Compound 21, dimethyl ((1S,1′S)-((2S,2′S,5S,5′S)-((5,10-dihydrochromeno[5,4,3-cde]chromene-2,7-diyl)bis(4-chloro-1H-imidazole-5,2-diyl))bis(2-methylpyrrolidine-5,1-diyl))bis(1-((2R,6R)-2,6-dimethyltetrahydro-2H-pyran-4-yl)-2-oxoethane-2,1-diyl))dicarbamate] | 9.3 |
| COC(=O)N[C@H](C(=O)N1CC2(CC2)C[C@H]1c1nc(Cl)c(-c2cc3c4c(c2)OCc2cc(-c5[nH]c([C@@H]6CC7(CC7)CN6C(=O)[C@@H](NC(=O)OC)C(C)(C)C)nc5C(C)C)cc(c2-4)OC3)[nH]1)C(C)(C)C [Compound 82, methyl ((S)-1-((S)-6-(5-(7-(4-chloro-2-((S)-5-((S)-2-((methoxycarbonyl)amino)-3,3-dimethylbutanoyl)-5-azaspiro[2.4]heptan-6-yl)-1H-imidazol-5-yl)-5,10-dihydrochromeno[5,4,3-cde]chromen-2-yl)-4-isopropyl-1H-imidazol-2-yl)-5-azaspiro[2.4]heptan-5-yl)-3,3-dimethyl-1-oxobutan-2-yl)carbamate] | 2.6 |
| CC[C@H](C)[C@H](NC(=O)OC)C(=O)N1C[C@H](C)C[C@H]1c1nc(Cl)c(-c2cc3c4c(c2)OCc2cc(-c5[nH]c([C@@H]6C[C@@H](C)CN6C(=O)[C@@H](NC(=O)OC)[C@@H](C)CC)nc5Cl)cc(c2-4)OC3)[nH]1 [Compound 2, dimethyl ((2S,2′S,3S,3′S)-((3R,3′R,5S,5′S)-((5,10-dihydrochromeno[5,4,3-cde]chromene-2,7-diyl)bis(4-chloro-1H-imidazole-5,2-diyl))bis(3-methylpyrrolidine-5,1-diyl))bis(3-methyl-1-oxopentane-1,2-diyl))dicarbamate] | 6.5 |
| COC(=O)N[C@H](C(=O)N1C[C@H](C)C[C@H]1c1nc(Cl)c(-c2cc3c4c(c2)OCc2cc(-c5[nH]c([C@@H]6C[C@@H](C)CN6C(=O)[C@@H](NC(=O)OC)C(C)C)nc5C(C)C)cc(c2-4)OC3)[nH]1)C(C)C [Compound 84, methyl ((S)-1-((2S,4R)-2-(5-(7-(4-chloro-2-((2S,4R)-1-((methoxycarbonyl)-L-valyl)-4-methylpyrrolidin-2-yl)-1H-imidazol-5-yl)-5,10-dihydrochromeno[5,4,3-cde]chromen-2-yl)-4-isopropyl-1H-imidazol-2-yl)-4-methylpyrrolidin-1-yl)-3-methyl-1-oxobutan-2-yl)carbamate] | 3.3 |
| CCc1nc([C@@H]2CCCN2C(=O)[C@@H](NC(=O)OC)C(C)C)[nH]c1-c1cc2c3c(c1)OCc1cc(-c4[nH]c([C@@H]5CCCN5C(=O)[C@@H](NC(=O)OC)C(C)C)nc4CC)cc(c1-3)OC2 [Compound 18, dimethyl ((2S,2′S)-((2S,2′S)-((5,10-dihydrochromeno[5,4,3-cde]chromene-2,7-diyl)bis(4-ethyl-1H-imidazole-5,2-diyl))bis(pyrrolidine-2,1-diyl))bis(3-methyl-1-oxobutane-1,2-diyl))dicarbamate] | 255 |
| COC(=O)N[C@H](C(=O)N1[C@@H](C)CC[C@H]1c1nc(C(C)C)c(-c2cc3c4c(c2)OCc2cc(-c5[nH]c([C@@H]6CC[C@H](C)N6C(=O)[C@@H](NC(=O)OC)C(C)C)nc5C(C)C)cc(c2-4)OC3)[nH]1)C(C)C [Compound 40, dimethyl ((2S,2′S)-((2S,2′S,5S,5′S)-((5,10-dihydrochromeno[5,4,3-cde]chromene-2,7-diyl)bis(4-isopropyl-1H-imidazole-5,2-diyl))bis(2-methylpyrrolidine-5,1-diyl))bis(3-methyl-1-oxobutane-1,2-diyl))dicarbamate] | 5.6 |
| CC[C@@H](C)[C@H](NC(=O)OC)C(=O)N1CCC[C@H]1c1nc(Cl)c(-c2cc3c4c(c2)OCc2cc(-c5[nH]c([C@@H]6CCCN6C(=O)[C@@H](NC(=O)OC)[C@H](C)CC)nc5Cl)cc(c2-4)OC3)[nH]1 [Compound 32, dimethyl ((2S,2′S,3R,3′R)-((2S,2′S)-((5,10-dihydrochromeno[5,4,3-cde]chromene-2,7-diyl)bis(4-chloro-1H-imidazole-5,2-diyl))bis(pyrrolidine-2,1-diyl))bis(3-methyl-1-oxopentane-1,2-diyl))dicarbamate] | 1.1 |
| COC(=O)N[C@H](C(=O)N1C[C@H](C)C[C@H]1c1nc(Cl)c(-c2cc3c4c(c2)OCc2cc(-c5[nH]c([C@@H]6C[C@@H](C)CN6C(=O)[C@@H](NC(=O)OC)C(C)(C)C(F)(F)F)nc5Cl)cc(c2-4)OC3)[nH]1)C(C)(C)C(F)(F)F [Compound 3, dimethyl ((2S,2′S)-((3R,3′R,5S,5′S)-((5,10-dihydrochromeno[5,4,3-cde]chromene-2,7-diyl)bis(4-chloro-1H-imidazole-5,2-diyl))bis(3-methylpyrrolidine-5,1-diyl))bis(4,4,4-trifluoro-3,3-dimethyl-1-oxobutane-1,2-diyl))dicarbamate] | 5.2 |
| COC[C@H]1CC[C@@H](c2nc(Cl)c(-c3cc4c5c(c3)OCc3cc(-c6[nH]c([C@@H]7CC[C@H](COC)N7C(=O)[C@@H](NC(=O)OC)C(C)C)nc6Cl)cc(c3-5)OC4)[nH]2)N1C(=O)[C@@H](NC(=O)OC)C(C)C [Compound 49, dimethyl ((2S,2′S)-((2R,2′R,5S,5′S)-((5,10-dihydrochromeno[5,4,3-cde]chromene-2,7-diyl)bis(4-chloro-1H-imidazole-5,2-diyl))bis(2-(methoxymethyl)pyrrolidine-5,1-diyl))bis(3-methyl-1-oxobutane-1,2-diyl))dicarbamate] | 1.9 |
